Data reported in patent US20110251220A1, “Pharmaceutical compositions comprising gamma secretase modulators” (priority 2008, published 2011).

Key:
Type in all cases: cell-based, human
[1] = tested on: MSC; test: PARP cleavage in mesenchymal stem cells (MSC), mono- and coculture; details: mono- and cocultures, high doses of GSI15
Method: (§1) Whole cell extracts were prepared and quantified as described in Jundt F, Anagnostopoulos I, Forster R, Mathas S, Stein H, Dorken B. Activated Notch1 signaling promotes tumor cell proliferation and survival in Hodgkin and anaplastic large cell lymphoma. Blood. 2002; 99:3398-3403. Proteins (30 μg) were resolved by sodium dodecyl sulfate-polyacrylamide gel electrophoresis (SDS-PAGE) and transferred to nitrocellulose membranes. Protein loading was normalized by Ponceau red staining. Membranes were incubated with monoclonal mouse anti-Notch1 antibody (no. 552466; BD Biosciences, Heidelberg, Germany), anti-Jagged1 antibody (sc-8303; Santa Cruz Biotechnology), polyclonal rabbit anti-Delta antiboday (Santa Cruz Biotechnology), polyclonal rabbit anti-cleaved PARP (Asp214) antibody (Cell Signaling Technologies, Frankfurt a.M., Germany) or mouse monoclonal anti-tubulin antibody (Sigma, Deisenhofen, Germany).
(§2) Secondary antibodies were goat anti-mouse (Promega, Mannheim, Germany), goat anti-rat (Dianova, Hamburg, Germany), and goat anti-rabbit (Santa Cruz Biotechnology) horseradish peroxidase (HRP)-conjugated antibodies. Detection was done using Pico chemi-luminescence reagent (Perbio Science, Bonn, Germany).

[2] = tested on: U266 cells; test: PARP cleavage by Western blotting, U266
Method: as §1, §2

[3] = tested on: Hes-1; test: Quantitative RT-PCR of Notch1 target gene Hes-1 in OPM-2 cells; details: OPM-2 cells treated with GSI15
Method: Quantitative real-time reverse transcription-PCR (RT-PCR) analysis was performed using the following primer/probe sets: human Hes-1 (forward—[…], reverse—[…], probe—FAM-[…]-TAMRA) human TRAP5 (forward—[…], reverse—[…], probe FAM-[…]-TAMRA), human beta2-microglobulin (forward—ccc cca ctg aaa aag atg ag, reverse—atc caa tcc aaa tgc ggc, probe—FAM-CCTGCCGTGTGAACCATGTGACTTT-TAMRA) served as normalizer. Total RNA was extracted from MM cells, human osteoclasts or human osteoblasts using RNeasy Mini Kit (Qiagen, Hilden, Germany) following the manufacturer's instructions. For the RT-PCR reaction SuperScript™ III Platinum® One-Step Quantitative RT-PCR System (Invitrogen, Karlsruhe, Germany) was used. 50 ng total RNA were used per reaction, each RNA sample was analyzed in three replicates. PCR conditions (40 cycles) were the following: reverse transcription at 50° C. for 30 minutes, initial denaturation at 95° C. for 10 minutes, followed by 40 cycles of 45 seconds denaturation at 95° C. and 60 seconds annealing/extension at 62° C. Amplification of the house-keeping gene beta2-microglobulin was used to normalize the expression data. Normalized mRNA expression data were then calculated as values relative to the respective untreated sample.

[4] = tested on: OBL; test: PARP cleavage in osteoblasts (OBL), mono- and coculture; details: mono- and cocultures, high doses of GSI15
Method: Human MM cell lines used were as follows: NCI-H929, OPM-2, LP-1, RPMI-8226, U266 (DSMZ, Braunschweig, Germany). Cell lines were cultured in RPMI 1640 medium (Biochrom, Berlin, Germany) supplemented with 10% heat-inactivated fetal calf serum (FCS, Gibco, Karlsruhe, Germany), 1 mM sodium pyruvate and 100 units/ml penicillin and 100 μg/ml streptomycin (Gibco). Human osteoclasts were obtained as described in the reference of Zavrski I, Krebbel H, Wildemann B, et al. Proteasome inhibitors abrogate osteoclast differentiation and osteoclast function. Biochem Biophys Res Commun. 2005; 333:200-205. Briefly, peripheral blood mononuclear cells (PBMC) were isolated from whole blood of healthy volunteers, using a Ficoll-Hypaque density gradient. The adherent fraction of the isolated mononuclear cells was cultured for 21 days in MEM medium (Sigma-Aldrich Chemie, Taufkirchen, Germany) supplemented with 10% FCS, 100 U/ml penicillin, 100 μg/ml streptomycin, 50 ng/ml M-CSF, and 25 ng/ml RANKL (osteoclastogenic medium), before coculture experiments and treatment with the inventive compounds started. […]
Whole cell extracts were prepared and quantified as described in Jundt F, Anagnostopoulos I, Forster R, Mathas S, Stein H, Dorken B. Activated Notch1 signaling promotes tumor cell proliferation and survival in Hodgkin and anaplastic large cell lymphoma. […]

CC(C)c1ccc(S(=O)(=O)Nc2cccnc2Oc2ccc(Cl)cc2)cc1 [Example 1, N-(2-(4-chlorophenoxy)pyridin-3-yl)-4-isopropylbenzenesulfonamide] was tested, and the “PARP cleavage (apoptosis)” value [1] was “Neither in OBL nor in MSC apoptosis was induced”, the “PARP cleavage product (apoptosis marker)” value [2] was “not in the U266 cell line” and the “Hes-1 expression (Notch1 target gene)” value [3] was “dose-dependently downregulated”. The “PARP cleavage (apoptosis)” value [4] was “Neither in OBL nor in MSC apoptosis was induced”.
